Source: ChEMBL document CHEMBL1201862, “PubChem BioAssay data set” (2004)
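Compound exposure: 48 hours, 5 concentrations, 96-well plates. GI50 marks 50% less growth.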 Activity calls are given as the source filed them. Rule as the data show it: active = GI50 up to about 1.1 µM and inactive = higher.

Columns and labels:
Assay in all cases: NCI anticancer screen, dose series, 48 h
786-0 = test system: 786-0
CAKI-1 = test system: CAKI-1
COLO 205 = test system: COLO 205
HCT-15 = test system: HCT-15
IGROV-1 = test system: IGROV-1
K562 = test system: K562
MDA-MB-231 = test system: MDA-MB-231
NCI-H226 = test system: NCI-H226
NCI-H460 = test system: NCI-H460
OVCAR-3 = test system: OVCAR-3
PC-3 = test system: PC-3
RPMI-8226 = test system: RPMI-8226
SK-MEL-2 = test system: SK-MEL-2
SK-MEL-5 = test system: SK-MEL-5
SN12C = test system: SN12C
TK-10 = test system: TK-10
UACC-257 = test system: UACC-257
UO-31 = test system: UO-31
OVCAR-4 = test system: OVCAR-4

Structure (SMILES) | GI50 (786-0) | GI50 (CAKI-1) | GI50 (COLO 205) | GI50 (HCT-15) [µM] | GI50 (IGROV-1) | GI50 (K562) | GI50 (MDA-MB-231) | GI50 (NCI-H226) | GI50 (NCI-H460) | GI50 (OVCAR-3) | GI50 (PC-3) | GI50 (RPMI-8226) | GI50 (SK-MEL-2) | GI50 (SK-MEL-5) | GI50 (SN12C) | GI50 (TK-10) | GI50 (UACC-257) | GI50 (UO-31) | GI50 (OVCAR-4)
CC1(C)CC(=O)c2c(nc3ccc4ccccc4c3c2-c2ccc(NC(=O)CCCC(=O)Nc3ccc(-c4c5c(nc6ccc7ccccc7c46)CC(C)(C)CC5=O)cc3)cc2)C1 | > 100 µM (inactive) | > 100 µM (inactive) | > 100 µM (inactive) | > 100 | > 100 µM (inactive) | > 100 µM (inactive) | > 100 µM (inactive) | > 100 µM (inactive) | > 100 µM (inactive) | > 100 µM (inactive) | > 100 µM (inactive) | > 100 µM (inactive) | > 100 µM (inactive) | > 100 µM (inactive) | > 100 µM (inactive) | > 100 µM (inactive) | > 100 µM (inactive) | > 100 µM (inactive) | –
CC(Cc1ccc(Cl)cc1Cl)NO (centres undefined) | > 100 µM (inactive) | > 100 µM (inactive) | > 100 µM (inactive) | > 100 | > 100 µM (inactive) | 83.9 µM (inactive) | > 100 µM (inactive) | 46.3 µM (inactive) | – | > 100 µM (inactive) | > 100 µM (inactive) | 78 µM (inactive) | > 100 µM (inactive) | 95.7 µM (inactive) | 92.7 µM (inactive) | > 100 µM (inactive) | > 100 µM (inactive) | > 100 µM (inactive) | > 100 µM (inactive)
COc1ccc2c(O)c1-c1c(OC)ccc(c1O)SSc1ccc(OC)c(c1O)-c1c(OC)ccc(c1O)SS2 | 40.6 µM (inactive) | > 100 µM (inactive) | 19.9 µM (inactive) | – | 23 µM (inactive) | 5.2 µM (inactive) | 44.3 µM (inactive) | 29.9 µM (inactive) | – | 20.6 µM (inactive) | 5.42 µM (inactive) | 1.99 µM (inactive) | > 100 µM (inactive) | 30 µM (inactive) | > 100 µM (inactive) | 65.8 µM (inactive) | > 100 µM (inactive) | 4.21 µM (inactive) | 12.1 µM (inactive)
COC1OC2COC(c3ccccc3)OC2C(O)C1OC(=S)c1ccccc1 (centres undefined) | – | 24.4 µM (inactive) | 16.7 µM (inactive) | 28.4 | 32.4 µM (inactive) | 53.3 µM (inactive) | 36.7 µM (inactive) | 46.1 µM (inactive) | 28.6 µM (inactive) | 34.8 µM (inactive) | 18.3 µM (inactive) | 15.5 µM (inactive) | 53.3 µM (inactive) | 23 µM (inactive) | 21.8 µM (inactive) | 62.5 µM (inactive) | 50 µM (inactive) | 61.4 µM (inactive) | 73.6 µM (inactive)
CC(=O)OCC1(CNc2nc(N)ncc2C#N)CC(CCc2ccccc2)C1 (centres undefined) | 40.4 µM (inactive) | 4 µM (inactive) | 75.3 µM (inactive) | > 100 | 21.4 µM (inactive) | 2.2 µM (inactive) | 10.4 µM (inactive) | 42 µM (inactive) | 26.8 µM (inactive) | – | > 100 µM (inactive) | – | > 100 µM (inactive) | 1.62 µM (inactive) | > 100 µM (inactive) | > 10 µM (inactive) | > 100 µM (inactive) | 10.7 µM (inactive) | > 100 µM (inactive)
Oc1ccc(/C=N/N=c2\[nH][nH]/c(=N\N=C\c3ccc(O)cc3O)c3ccccc23)c(O)c1 | 0.378 µM (active) | 0.268 µM (active) | 0.581 µM (active) | 0.244 | 0.327 µM (active) | 0.261 µM (active) | 0.401 µM (active) | – | 0.355 µM (active) | 0.185 µM (active) | 0.375 µM (active) | 0.3 µM (active) | 0.288 µM (active) | 0.236 µM (active) | 0.308 µM (active) | – | 0.428 µM (active) | 0.388 µM (active) | –
